Among the data in patent US7786152B2, “Compound” (priority 2002, dated 2010) are melting point and inhibition values, retold here.

Molecules are shown by their SMILES.

Series [1] addresses T1, 11 β-HSD type 2 (Rattus norvegicus, UniProt P50233).
T1 construct: Both the kidneys and livers were homogenised on ice in PBS-sucrose buffer; tissue Harlan Olac (rats); host or cells: Wistar rat kidney homogenate supernatant
T1 sequence (P50233 1-400): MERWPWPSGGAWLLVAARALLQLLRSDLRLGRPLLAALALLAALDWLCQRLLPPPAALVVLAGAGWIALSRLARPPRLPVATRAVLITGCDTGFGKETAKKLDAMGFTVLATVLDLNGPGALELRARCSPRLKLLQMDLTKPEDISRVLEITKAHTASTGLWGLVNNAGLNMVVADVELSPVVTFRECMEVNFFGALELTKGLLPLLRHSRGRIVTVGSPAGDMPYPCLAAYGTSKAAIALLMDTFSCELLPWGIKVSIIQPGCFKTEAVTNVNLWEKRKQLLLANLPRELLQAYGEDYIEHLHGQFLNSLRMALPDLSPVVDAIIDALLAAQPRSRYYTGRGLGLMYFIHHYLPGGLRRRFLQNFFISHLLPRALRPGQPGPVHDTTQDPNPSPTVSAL
In words: 11 β-HSD type 2 inhibition, rat kidney homogenate, conversion F to E (radiometric TLC). In kind it is biochemical. The settings on record: read-out: % inhibition of 11β HSD2 @ 10 μM, typical sd ± 5%, means n=2. The protocol:
(§1) Enzymes—Rat livers and rat kidneys were obtained from normal Wistar rats (Harlan Olac, Bicester, Oxon, UK). Both the kidneys and livers were homogenised on ice in PBS-sucrose buffer (1 g/10 ml) using an Ultra-Turrax. After the livers and kidneys were homogenised the homogenate was centrifuged for five minutes at 4000 rpm. The supernatant obtained was removed and stored in glass vials at −20° C. The amount of protein per μl of rat liver and kidney cytosol was determined using the Bradford method.
The same procedure was used for the 11 β-HSD type 2 assay, the conversion F to E, to determine the amount of rat kidney to be used and the incubation time. Except this time the substrate solution contained ^3H—F and unlabelled F and the recovery contained ^14C-E and unlabelled E and cortisone has a Rf value of 0.65 on the TLC-plate.
(§2) In these assays the influence of different inhibitors on the 11 β-HSD activity both in reductive (type 1) and oxidative (type 2) directions were assessed. In the reductive direction E is the substrate and F the product and visa versa in the case of oxidation. The method described here is for the oxidative direction.
The substrate solution contained about 50,000 cpm/ml ^3H—F in PBS-sucrose and 0.5 μM F. 1 ml of the substrate solution was added to each tube, the inhibitors were also added, at a 10 μM concentration, to each tube except to the “control” and “blank” tubes. 150 μL was added to all tubes except to the blanks, this was done to correct for the amount of ^3H—F spontaneously formed. The tubes were incubated for 60 minutes in a mechanically shaken water bath at 37° C. The amount of kidney liver homogenate and incubation time used resulted from the enzyme- and time-dependency assay. After incubation 50 μL of recovery was added to correct for the losses made in the next steps, containing 5000 cpm/50 μL of ^14C-E and 50 μg/50 μL of unlabelled E (to visualise the spot on the TLC-plate). The aqueous mixture was then extracted with 4 ml of ether (2×30 sec cycle, vortex mix). After freezing the aqueous phase, the ether (upper) layer was decanted into smaller tubes and evaporated at 45° C. until completely dry. The residue was then re-dissolved in 6 drops of ether and transferred to a TLC-plate. The TLC-plate was developed in chloroform:methanol (9:1 v/v) solvent system, the TLC-plate ran for about 90 minutes until the solvent front had moved about 18 cm. The position of the product E was visualised under UV-light and cut out from the TLC-plate and put into scintillation vials. Radioactivity was eluted over 5 minutes with 0.5 ml methanol. 0.5 ml of PBS-sucrose and 10 ml of Ecoscint were then added and vortex mixed before counting in the scintillation counter. Before counting the samples, two total activity vials were prepared. These contained 0.5 ml of the substrate solution, 50 μL of the recovery, 0.5 ml of methanol and 10 ml of Ecoscint. These two total activity vials were needed to determine the amount of ^14C-E and ^3H—F added in the beginning to make the calculations.
To look at the percentage of inhibition four different concentrations, 1, 5, 10 and 20 μM, were used. The method for both the rat liver, type 1 the reductive, and rat kidney, type 2 the oxidative, stay the same throughout the entire experiment.
In this experiment the amount of rat liver homogenate and rat kidney homogenate added to each tube and the incubation time was determined. […] After drawing the graphs the optimal amount of rat liver cytosol and rat kidney cytosol and both their incubation times were selected. One important rule when selecting both variables, to select an amount of rat liver and rat kidney and incubation time on a linear part of the graph. This is done to avoid fluctuations in enzyme activity. The amount of rat liver cytosol selected was 25 μL and 90 minutes of incubation time, the amount of rat kidney cytosol selected was 150 μL and 60 minutes of incubation time. […]

The target in series [2] is T2, 11 β-HSD type 1 (Rattus norvegicus, UniProt P16232).
T2 construct: Both the kidneys and livers were homogenised on ice in PBS-sucrose buffer; tissue Harlan Olac (rats); host or cells: Wistar rat liver homogenate supernatant
In words: 11 β-HSD type 1 inhibition, rat liver homogenate, conversion E to F (radiometric TLC). In kind it is biochemical. The conditions noted are these: read-out: % inhibition of 11β HSD1 @ 10 μM, 10 μM, typical sd ± 5%, means n=2. The method, then:
as §1
11 β-HSD type 1 is the enzyme responsible for the conversion E to F and this type of enzyme is present in rat liver. The substrate solution used in this assay contained 70,000 cpm/ml ^3H-E in PBS-sucrose and 0.5 μM of unlabelled E and co-factor NADPH (9 mg/10 ml of substrate solution). 1 ml of the substrate solution and the different amounts of rat liver homogenate was added to all tubes.
The amount of rat liver homogenate needed for an assay was determined by incubating the substrate solution with 25, 50, 100 and 150 μl for 30, 60, 90 and 120 minutes at 37° C. in a water bath with the tubes being mechanically shaken. After the incubation 50 μL of recovery solution was added, containing about 8,000 cpm/50 μL of ^14C—F and 50 μg/50 μL of unlabelled F for visualising the spot on the TLC-plate, to correct for the losses made in the next two steps. F was then extracted from the aqueous phase with 4 ml of ether (2×30 sec cycle, vortex mix). The aqueous phase was then frozen using dry-ice and the organic layer was decanted and poured into smaller tubes and evaporated. 6 drops of ether were then added to the small tubes to re-dissolve the residue which was transferred to an aluminium thin layer chromatography plate (TLC-plate). The TLC-plate was developed in a TLC tank under saturated conditions. The solvent system used was chloroform:methanol 9:1 (v/v). The F spots on the TLC-plate were visualised under UV-light and cut out from the TLC-plate (Rf=0.45). The spots from the TLC-plate were then put into scintillation vials and 0.5 ml of methanol was added to all vials to elute the radioactivity from the TLC-plate for 5 minutes. 10 ml of Ecoscint was added to the scintillation vials and they were put into the scintillation counter to count amount of product formed.
as §2
The substrate solution contained about 50,000 cpm/ml ^3H—F in PBS-sucrose and 0.5 μM F. 1 ml of the substrate solution was added to each tube, the inhibitors were also added, at a 10 μM concentration, to each tube except to the “control” and “blank” tubes. 150 μL was added to all tubes except to the blanks, this was done to correct for the amount of ^3H—F spontaneously formed. The tubes were incubated for 60 minutes in a mechanically shaken water bath at 37° C. The amount of kidney liver homogenate and incubation time used resulted from the enzyme- and time-dependency assay. After incubation 50 μL of recovery was added to correct for the losses made in the next steps, containing 5000 cpm/50 μL of ^14C-E and 50 μg/50 μL of unlabelled E (to visualise the spot on the TLC-plate). The aqueous mixture was then extracted with 4 ml of ether (2×30 sec cycle, vortex mix). After freezing the aqueous phase, the ether (upper) layer was decanted into smaller tubes and evaporated at 45° C. until completely dry. The residue was then re-dissolved in 6 drops of ether and transferred to a TLC-plate. The TLC-plate was developed in chloroform:methanol (9:1 v/v) solvent system, the TLC-plate ran for about 90 minutes until the solvent front had moved about 18 cm. The position of the product E was visualised under UV-light and cut out from the TLC-plate and put into scintillation vials. […]

T2 sequence (P16232 whole entry): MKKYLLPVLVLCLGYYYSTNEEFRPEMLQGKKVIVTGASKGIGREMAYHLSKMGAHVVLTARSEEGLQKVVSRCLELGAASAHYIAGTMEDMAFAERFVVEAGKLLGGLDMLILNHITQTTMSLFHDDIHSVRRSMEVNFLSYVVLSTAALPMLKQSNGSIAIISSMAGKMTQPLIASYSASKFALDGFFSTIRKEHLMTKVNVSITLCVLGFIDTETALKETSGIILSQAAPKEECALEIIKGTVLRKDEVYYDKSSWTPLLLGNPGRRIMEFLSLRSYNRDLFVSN

For the compound `Cc1c(Cl)cccc1S(=O)(=O)Nc1ccc2c(c1)nc(C)n2-c1ccccc1`, the melting point lay within 254 to 256 °C. In turn, `Cc1c(Cl)cccc1S(=O)(=O)Nc1ccc2nc(C)n(CCO)c2c1` gave a melting point of 213 to 214.5 °C. As for `Cc1c(Cl)cccc1S(=O)(=O)Nc1ccc2c(c1)nc(C)n2CCO`, the melting point lay in the range of 245 to 247 °C. For the compound `Cc1c(Cl)cccc1S(=O)(=O)Nc1ccc2nc(C)n(C)c2c1`, the melting point fell in the range of 265 to 266 °C.

For `Cc1nc2cc(NS(=O)(=O)c3c(C)c(C)cc(C)c3C)ccc2s1` [compound 706], the inhibition at 10 µM in series [1] stood at 7%; in series [2] it was 29%.

On to `COc1ccc(S(=O)(=O)Nc2ccc3sc(C)nc3c2)cc1OC` [compound 707], for which the inhibition at 10 µM in series [1] was 11%; in series [2], 21%. For `CC(=O)Nc1ccc(S(=O)(=O)Nc2ccc3sc(C)nc3c2)cc1` [compound 711], the inhibition at 10 µM came to 6% in series [1] and 37% in series [2].

As to `Cc1nc2cc(NS(=O)(=O)c3c(F)c(F)c(F)c(F)c3F)ccc2s1` [compound 712], the results for the inhibition at 10 µM in series [1] and in series [2] were 3% and 24%, respectively. As to `Cc1nc2cc(NS(=O)(=O)c3c(C)c(C)c4c(c3C)CCC(C)(C)O4)ccc2s1` [compound 713], the inhibition at 10 µM in series [1] stood at 3%; in series [2], 26%. Turning to `CC(=O)c1ccccc1S(=O)(=O)N(c1ccc2sc(C)nc2c1)S(=O)(=O)c1ccccc1C(C)=O` [compound 730], the inhibition at 10 µM came to 9% in series [1] and 32% in series [2].

On to `Cc1nc2cc(N(S(=O)(=O)c3ccccc3C#N)S(=O)(=O)c3ccccc3C#N)ccc2s1` [compound 731], for which the inhibition at 10 µM in series [1] is 12%; in series [2], 45%.

In the case of `Cc1c(Cl)cccc1S(=O)(=O)Nc1ccc2ncsc2c1` [compound 750], the inhibition at 10 µM in series [1] was found to be 10%; in series [2], 4%. For the compound `CCOC(=O)CSc1nc2ccc(NS(=O)(=O)c3cccc(Cl)c3C)cc2s1` [compound 752], the results for the inhibition at 10 µM in series [1] and in series [2] were 1% and 5%, respectively. On to `Cc1c(Cl)cccc1S(=O)(=O)Nc1ccc2[nH]c(=O)sc2c1` [compound 753], for which the inhibition at 10 µM is 2% in series [1] and 8% in series [2]. Regarding `COCCSc1nc2ccc(NS(=O)(=O)c3cccc(Cl)c3C)cc2s1` [compound 754], the inhibition at 10 µM in series [1] was 6%; in series [2], 20%.

Regarding `CCN(CC)C(=O)CSc1nc2ccc(NS(=O)(=O)c3cccc(Cl)c3C)cc2s1` [compound 755], the inhibition at 10 µM in series [1] amounted to 8%; in series [2], 21%.
